Experimental data: patent publication US20250034218A1, “ANTIMICROBIAL PEPTIDES” (BiomEdit, LLC, priority 2021, published 2025)
Ends that are not written are not given here.

What was measured:
Giardia trophozoites = assay: Giardia trophozoite test tube assay, light microscopy; format: cell-based; details: AMP01 100 μM, FOR 5 μM
Experimental: Test tube with a confluent layer of trophozoites is treated with AMP01 (100 μM). Light microscopy, counting of detached dead or alive (i.e. motile) trophozoites is then conducted. Formononetin (5 μM; FOR) is used for comparison as a positive control.
The changes in morphology were still visible one day after the treatment and are depicted in FIG. 3 (photographs all taken at 100×). After 1 d, the trophozoites in the control tube (FIG. 3A) were fully alive (and overgrowing), as expected. […] The different sizes of the trophozoites can be noted by comparing the white circles. Similar effects were observed using cytotoxic anti-variant surface protein antibodies (Hemphil et al. 1996).

Giardia = Giardia plate assay, % of control (Table 3); format: cell-based; details: plate G7
From the text: Data comparing AMP01 (wild type CAP 18 peptide (SEQ ID NO: 1) with various other agents is tabulated in Table 3. NTZ corresponds to nitazoxanide. ALB corresponds to albendazole.

M. haemolytica = format: cell-based, Mannheimia haemolytica; details: plate assay, FIG. 2B
Experimental: (§1) CAP18 peptide (wild type peptide also herein designated as AMP01) has application and utility for multiple indications in livestock, poultry & aqua species. […] Cap18 peptide is active against viruses of significance for the animal industry, such as PRRSV (PRRS, swine) (FIG. 2C). […] FIG. 3 depicts activity of CAP18 peptide (AMP01) against Giardia.
(§2) Antimicrobial effect of CAP18 against BRD pathogens M. haemolytica and P. multocida was evaluated.

P. mutlocida = format: cell-based, Pasteurella multocida
Experimental: as §1, §2

[1] = test system: porcine reproductive and respiratory syndrome virus (PRRSV); assay: Inhibition of PRRS virus infection; format: cell-based; details: 1:2 and 1:4 diluted
Experimental: Antibacterial peptide CAP18 was evaluated for activity inhibiting virus, particularly its antiviral effect on porcine reproductive and respiratory syndrome virus (PRRSV). Results are provided in Figure S. AMP01 polypeptide was evaluated at 1:2 and 1:4 diluted and shown to be effective.

Eimeria = assay: Inhibition of Eimeria parasites; format: cell-based; details: Eimeria (Coccidiosis, poultry)
Experimental: The effect of Cap 18 peptides and any variants thereof is tested on Eimeria. An exemplary study is provided with results depicted in FIG. 4. Three independent experiments were conducted with CAP18 peptides—designated Cap18a, Cap18b and Cap18c. The CAP18 peptides were compared with monensin as a positive control. Three independent experiments with monensin (designated Mona, Monb and Monc).

E. coli DH5 alpha = format: cell-based, Escherichia coli
Experimental: A MIC assay was set up using heat treated CAP18 variants in a 96-well plate. […] Appropriate controls (media only control, no CAP18 control) were included on the same plate. The plates were incubated at 37° C. for 24-48 hours and MIC for each variant was recorded. The experiment was repeated 3 times.

E. coli DH5alpha [2] = format: cell-based, Escherichia coli; details: peptide treated with proteinase K at 37° C. before MIC assay
Experimental: CAP18 peptide variants single mutants were evaluated for resistance to proteinase K. Peptides were subjected to proteinase K treatment and then assessed for bacterial cell killing (against E. coli) in a MIC assay.
CAP18 variants were synthesized from GenScript, Inc, and solubilized in sterile purified water to a final concentration of 4 mg/ml. E. coli DH5alpha was grown overnight in 10 ml LB broth. Ten microliters of each CAP18 variant was treated with 2 μl of proteinase K (Qjagen, >600 mAU/ml) and incubated at 37° C. for 2 or 5 minutes in a PCR machine. The samples were then incubated at 98° C. for 5 minutes to inactivate proteinase K. An MIC assay was set up using proteinase K-treated CAP18 variants in a 96-well plate. Briefly, the peptides were serially diluted 2-fold in LB broth to achieve a final volume of 50 μl in each well and 50 μl of the E. coli DH5alpha culture adjusted to a concentration of 2×10^6 cells/ml was added into each well. Appropriate controls (media only control, no CAP18 control) were included on the same plate. The plates were incubated at 37° C. for 24-48 hours and MIC for each variant was recorded. The experiment was repeated 3 times.

E. coli DH5alpha [3] = format: cell-based, Escherichia coli; details: peptide treated with trypsin at 37° C. before MIC assay
Experimental: CAP18 peptide variants single mutants were evaluated for resistance to trypsin. Peptides were subjected to trypsin protease treatment and then assessed for bacterial cell killing (against E. coli) in a MIC assay.
CAP18 variants were synthesized from GenScript, Inc, and solubilized in sterile purified water to a final concentration of 4 mg/ml. E. coli DH5alpha was grown overnight in 10 ml LB broth. Ten microliters of each CAP18 variant was treated with 2 μl (or 2 μl of the 10-fold diluted trypsin) of trypsin (0.25%, Sigma Aldrich) and incubated at 37° C. for 2 or 5 minutes in a PCR machine. The samples were then incubated at 98° C. for 5 minutes to inactivate trypsin. An MIC assay was set up using trypsin-treated CAP18 variants in a 96-well plate. Briefly, the peptides were serially diluted 2-fold in LB broth to achieve a final volume of 50 μl in each well and 50 μl of the E. coli DH5alpha culture adjusted to a concentration of 2×10^6 cells/ml was added into each well. Appropriate controls (media only control, no CAP18 control) were included on the same plate. The plates were incubated at 37° C. for 24-48 hours and MIC for each variant was recorded. The experiment was repeated 3 times.

[4] = test system: Methanobacterium bryantii; assay: In-vitro screening, growth of rumen methanogen; format: cell-based; details: FIGS. 10A and 10B; BES as positive control
From the text: BES, a known methanogen inhibitor shown in FIG. 10C, was used as a positive control.

Y. ruckeri = details: injection before exposure to Y. ruckeri; compared to non-treated fish; cited from earlier work
[5] = 90° C. for 30 minutes; cited from earlier work

## GLRKRLRKFRNKIKEKLKKIGQKIQGLLPKLAPRTDY [AMP01]
Giardia trophozoites; after 1 h
  detachment of trophozoites: nearly complete detachment
  morphology and motility of detached trophozoites: crumbled, shrunken and immotile
Giardia trophozoites; after 1 d
  state of trophozoites: dead, shrunken and started to disintegrate
Giardia; Conc 10 (uM or %)
  % of control MV: 141.1%
Giardia; Conc 100 (uM or %)
  % of control MV: 1.0%
M. haemolytica
  MIC: 4 to 8 µg/mL
P. mutlocida
  MIC: 4 to 8 µg/mL
[1]
  antiviral effect on PRRSV: effective
Eimeria
  inhibiting activity of parasites: effective in inhibiting activity
E. coli DH5 alpha
  Thermotolerance at 90 for 5 minutes (MIC, ug/ml): 200 µg/mL
E. coli DH5alpha [2]
  Resistance to proteinase K (MIC, ug/ml): >400 µg/mL
E. coli DH5alpha [3]
  Resistance to trypsin (MIC, ug/ml): 25 µg/mL
[4]
  growth of rumen methanogen: inhibits the growth
Y. ruckeri
  mortality: lower mortality
[5]
  antimicrobial activity after heat treatment: retain full antimicrobial activity
